According to patent publication US20030224467A1, “AIB1 as a prognostic marker and predictor of resistance to endocrine therapy” (priority 2002, published 2003):
Entries after “also recorded” stand apart in the source; their conditions may differ.

Tests used:
MCF-7/HER-218 tumors = test: Athymic nude mouse model, MCF-7/HER-218 tumor growth; assay type: in vivo, mice; details: continued estrogen, or estrogen withdrawal plus tamoxifen, compared to estrogen withdrawal alone
Procedure: Ovariectomised female BALB/c-nu+/nu+ mice 4-5 weeks of age were purchased from Harlan Sprague-Dawley (Madison, Wis.). […] Estrogen pellets (0.25 mg, 21 day release) were purchased from Innovative Research (Rockville, Md.) and half a pellet placed subcutaneously in the interscapular area of each animal on the day prior to cell injection. MCF-7/HER-218 cells were grown in 150 cm^3 flasks and split 1:5 in DMEM (Invitrogen, Calif.) supplemented with 10% FBS. When flask cell confluence reached 90-100%, cells were harvested using a soft rubber scraper, then spun down at 1000 rpm for 3 minutes, and resuspended in the original media for injection. Cells were injected at 5×10^6−1×10^7 in 0.2 ml per animal in the right mammary fat pad. […] Each individual group had 8 animals (n=8). […] Tumors were subsequently measured weekly and recorded according to the formula: Tumor volume=width^2×length/2. Animal were weighed every 2 weeks and monitored for toxicity. Tumor growth curves were constructed using the mean of tumors' volume at each measurement point with the error bars representing the standard error of the mean. Student's t-test was used to compare data between two groups. Values are expressed as relative to tumor volume to size at the beginning of treatment as mean ±s.d.

parental MCF-7 tumors = test: Parental MCF-7 tumor growth; assay type: in vivo, mice; details: wild-type MCF-7, tamoxifen
[1] = system: estrogen responsive genes in MCF-7/HER-218 cells; test: Endogenous estrogen responsive gene induction (immunoblot); details: for Protein expression of endogenous estrogen responsive genes: 12 hr induction
Excerpt: (§2) The cellharvest, cell extraction preparation and immunobloting were as above.

[2] = system: estrogen responsive genes in wild-type MCF-7 cells; test: as above; details: 12 hr induction
Excerpt: as §2

MCF-7 cells = test: S-phase fraction of cells; assay type: cell-based, human; details: agent alone
ER in MCF-7 cells = test: ERE luciferase reporter, ER dependent transcription; assay type: cell-based, human
[3] = system: HER-2/neu and MAPK in BT474 cells; test: Phosphorylation analysis by western immunoblotting; details: 20 minute treatment
Procedure: (§3) Treated cells were then immediately harvested. Cells were first rinsed twice with cold PBS, and lysed in 1×cell lysis buffer (Cell Signaling Technology) supplemented with 10% Glycerol, 1 mM Pherryl Methylsulfonyl Fluoride (PMSF), 1×Complete Protease inhibitor mixture (Roche, Indianapolis, Ind.), 1 μM Okadaic acid, 10 μg/mL Microsystin as instruction from Cell Signaling Technology. Protein concentration was measured by Bio-Rad Protein Assay kit (Bio-Rad, Hercules, Calif.) according to manufacturer's instruction. 20 μg of protein extracts from individual treatments were electrophoresized on SDS-PAGE gel (Invitrogen), and electroblotted to nitrocellulose membrane (Millipore, Bedford, Mass.). Membranes were blocked with blocking buffer (5% w/v nonfat dry milk in 1×TBS with 0.1% Tween-20, TBST) for 1 hr and then incubated with primary antibody in 5% BSA TBST (for all phospho antibodies with gentle agitation overnight at 4° C., otherwise in blocking buffer for 2 hrs at room temperature). After washing and incubating with secondary horseradish peroxidase conjugated antibodies against mouse or rabbit IgG (Amershan, Arlington Heoghts, Ill. Immunoreactive proteins were detected by the ECL (Amershan). Quantitation was performed by using NIH Imagine Software.

[4] = system: pS2 promoter in MCF-7/HER-218 cells; test: Chromatin immunoprecipitation on the pS2 promoter; details: 20 minute incubation
Procedure: (§4) Wild type MCF7 and HER-2-18 cells were grown to 90% confluence in phenol red-free IMEM supplemented with 10% CDS FBS for 7 days, the cells were starved completely with phenol red-free IMEM (without serum) for overnight. […] Cells were pelleted and lysis in 1 ML SDS lysis buffer and incubated on ice for 10 min. Lysate was sonicated by three times for 10 sec. at maximum setting followed by centrifugation for 10 min at 4 C. 200 ul of supernatant was, subjected to each immunoprecipitation with specific antibody, diluted with ChIP dilution buffer 10 fold and pre-cleared with 80 ul of SS-DNA/Protein A/G agarose plus 20 ul of normal mouse or rabbit IgG (Santa Cruz) depending on primary antibody used afterward for 4 hrs at 4 C. The beads were collected and saved as normal IgG control. The pre-cleared supernatant was immunoprecipitated with antibodies against ER, or AIB1, or NcoR, or Act-H3, respectively at 4° C. for overnight, followed by SS-DNA/Protein A/G at 4 C. for 1 hr. Pellet agarose by gentle centrifugation (1000 rpm, 1 min, 4° C.). The pellets were intensively washed sequentially as follows in 1 ml volume: low salt wash buffer X 1 time, high salt wash buffer X 1 time, LiCl salt wash buffer X 1 time, TE X 2 times. […]

[5] = system: AIB1 in MCF-7/HER-218 cells; test: Western blot mobility shift of AIB1; assay type: cell-based, human
Procedure: (§1) In PPase treatment group, cell extracts were incubated with PPase prior to analysis as previously described. Antibody against AIB1 was used.

MCF-7/HER-218 cells = test: S-phase fraction of cells; assay type: cell-based, human; details: agent alone
[6] = system: phosphorylated MAPK, AIB1; test: Immunoblot of MCF-7/HER-218 tumors from treated mice
Procedure: Treated cells were then immediately harvested. Cells were first rinsed twice with cold PBS, and lysed in 1×cell lysis buffer (Cell Signaling Technology) supplemented with 10% Glycerol, 1 mM Pherryl Methylsulfonyl Fluoride (PMSF), 1×Complete Protease inhibitor mixture (Roche, Indianapolis, Ind.), 1 μM Okadaic acid, 10 μg/mL Microsystin as instruction from Cell Signaling Technology. […] 20 μg of protein extracts from individual treatments were electrophoresized on SDS-PAGE gel (Invitrogen), and electroblotted to nitrocellulose membrane (Millipore, Bedford, Mass.). Membranes were blocked with blocking buffer (5% w/v nonfat dry milk in 1×TBS with 0.1% Tween-20, TBST) for 1 hr and then incubated with primary antibody in 5% BSA TBST (for all phospho antibodies with gentle agitation overnight at 4° C., otherwise in blocking buffer for 2 hrs at room temperature). After washing and incubating with secondary horseradish peroxidase conjugated antibodies against mouse or rabbit IgG (Amershan, Arlington Heoghts, Ill. Immunoreactive proteins were detected by the ECL (Amershan). Quantitation was performed by using NIH Imagine Software.

[7] = system: ER, EGF-R, HER-2/neu, MAPK and AKT in MCF-7/HER-218 cells; test: Phosphorylation analysis by western immunoblotting; details: for Phosphorylation of EGF-R, HER-2/neu and MAPK / Phosphorylation of ER on serine 118: short-term (20 minutes)
Procedure: (§5) Treatments of cells with E2, 4HOT, EGF or HRG were conducted after cells were starved in phenol red-free, serum-free IMEM for 24 hr.
as §3

[8] = system: ER, EGF-R, HER-2/neu, MAPK and AKT in parental MCF-7 cells; test: Phosphorylation analysis by western immunoblotting; details: for Phosphorylation of EGF-R and HER-2/neu / Phosphorylation of ER on serine 118 / Phosphorylation of MAPK and AKT: short-term (20 minutes)
Procedure: as §5, §3

primary breast cancer = test: Five-year disease-free survival of node-positive breast cancer patients on tamoxifen adjuvant therapy, by AIB1 and HER-2 status; assay type: in vivo, human
Procedure: Frozen tumor specimens from 316 patients, all of whom had positive axillary lymph nodes at the time of initial surgery, were selected for study. Such patients have higher recurrence rates after primary treatment, resulting in more events for statistical power. […] The median follow-up for patients still living is 95 months. Proteins from 30 mg of tissue were extracted in 300 μl 5% SDS at 90° C. for 5 minutes. Protein concentration was determined using the BCA method (Pierce, Rockford, Ill.); typical yields were 2-5 μg/μl. Samples were stored at −70° C. until use.
Assays were performed and results quantified by an investigator blinded to clinical information. 20 μg of extracted protein in sample buffer (0.05 M tris, pH 6.8, containing 2% SDS, 2.5% β-mercaptoethanol, 10% glycerol, and 0.1% bromphenol blue as tracking dye) were placed in boiling water for 2 minutes, cooled to room temperature, and centrifuged for 1 minute. An MCF-7 reference standard (5 μg protein per lane) was included on each gel as a normalization control. Proteins were electrophoresed on 8% Tricine-Glycine polyacrylamide gels (Invitrogen, Carlsbad, Calif.) and then transferred onto nitrocellulose. Blots were rinsed 5 minutes with TBS (TRIS-buffered saline: 100 mM TRIS, pH 7.5, and 0.9% NaCl) containing 0.1% Tween-20 (TBST). After blocking with 5% nonfat dry milk in TBST, the blots were incubated overnight at 4° C. in the primary antibody (1:1000 rabbit anti-RAC3 antiserum). This antibody was raised in rabbits against a MBP fusion protein containing amino acid residues 582-842 of human RAC3 (AIB1).
The blots were washed 3 times in TBST, followed by incubation for 1 hour in 5% nonfat dry milk in TBST and 1:5000 horseradish peroxidase labeled anti-rabbit Ig (Amersham, Piscataway, N.J.). The blots were washed 5 times in TBST, after which the labeled protein was visualized on a FluorChem digital imaging system (Alpha Innotech, San Leandro, Calif.) using an enhanced chemiluminescence detection system. Band intensities were measured densitometrically using the AlphaEaseFC software (Alpha Innotech, San Leandro, Calif.). AIB1 levels in tumors were normalized to the AIB1 concentration in the MCF-7 positive control lysate (5 μg) from the same immunoblot.
ER and progesterone receptors (PR) were measured by ligand binding assays as described by Harvey et al., 1999. S-phase fraction was calculated by DNA flow cytometry and classified as low, intermediate, or high (Wenger et al, 1998). Immunohistochemistry was used to semiquantitatively measure p53 and bcl 2 expression, and HER-2 expression was determined by western blot analyses as described by Elledge et al., 1997, and Tandon et al., 1989.
Associations between AIB1, steroid receptors, HER-2 and other molecular markers, and clinical variables were assessed using Spearman rank correlation. The disease-free survival (DFS) was calculated from the date of diagnosis. First recurrence (local or distant) was scored as an event, and patients without recurrence were censored at the time of last follow-up or death, meaning that an event of interest (e.g., recurrence or death) has not yet occurred. For graphical presentation, follow-up was truncated at 120 months. Overall survival was calculated from the date of diagnosis, with death from any cause being scored as an event. Patients who were alive at the last follow-up were censored at the last follow-up date. Survival curves were derived from Kaplan-Meier estimates, which are well known in the art, and the curves were compared by log-rank tests. Initially, separate analyses were performed for treated and untreated patients. The influence of AIB1 adjusted for other prognostic factors was assessed in multivariate analysis by Cox proportional hazards models.

[9] = system: pS2 promoter in MCF-7 cells; test: Chromatin immunoprecipitation on the pS2 promoter; details: 20 minute incubation
Procedure: as §4

[10] = system: ER in MCF-7/HER-218 cells; test: ERE luciferase reporter, ER dependent transcription; assay type: cell-based, human
AIB1 in MCF-7 cells = test: Western blot mobility shift of AIB1; assay type: cell-based, human; details: reversed by phosphatase treatment
Procedure: as §1

Molecule: CC/C(=C(\c1ccccc1)c1ccc(OCCN(C)C)cc1)c1ccccc1 [tamoxifen]
- Tumor growth (MCF-7/HER-218 tumors): increased tumor growth; also recorded: stimulated
- Tumor growth (parental MCF-7 tumors): inhibited
- Protein expression of endogenous estrogen responsive genes [1]: behaved as an estrogen agonist on all of the genes
- Protein expression of endogenous estrogen responsive genes [2]: no agonist activity
- Percent of cells in S-phase (MCF-7 cells): no agonist effect
- ERE luciferase activity (ER in MCF-7 cells; agent alone): no agonist activity
- Phosphorylated HER-2/neu and MAPK [3]: striking increase
- Occupancy of the pS2 promoter [4]: induced occupancy of the pS2 promoter by ER and by AIB1
- AIB1 phosphorylation (mobility shift of AIB1 band) [5]: phosphorylation of AIB1 was observed
- Fraction of cells in S-phase (MCF-7/HER-218 cells): stimulated the fraction of cells in S-phase
- Total and phosphorylated AIB1 in tumors ([6]; MCF-7/HER-218 tumors of treated mice): induced; also recorded: both higher
- Tumor level of phosphorylated (active) MAPK ([6]; estrogen, or estrogen withdrawal plus tamoxifen, versus estrogen withdrawal alone): activate MAPK and high
- MAPK phosphorylation ([7]; 48 hour treatment): striking effects
- Phosphorylation of ER ([7]; 48 hour treatment): still evident
- Phosphorylation of EGF-R, HER-2/neu and MAPK [7]: phosphorylation was detected
- Phosphorylation of ER on serine 118 [7]: phosphorylated
- MAPK phosphorylation ([8]; 48 hour treatment): no effect
- Phosphorylation of ER ([8]; 48 hour treatment): still evident
- Phosphorylation of EGF-R and HER-2/neu [8]: could not detect phosphorylation
- Phosphorylation of ER on serine 118 [8]: phosphorylate
- Phosphorylation of MAPK and AKT [8]: could not detect phosphorylation
- 5 yr DFS (primary breast cancer; High HER-2 (grade 2-4), High AIB1 (top quartile)): 42%
- 5 yr DFS (primary breast cancer; High HER-2 (grade 2-4), High AIB1 (top quartile), listed as Tamoxifen): 42%
- 5 yr DFS (primary breast cancer; High HER-2 (grade 2-4), Low AIB1 (lower 3 quartiles)): 77%
- 5 yr DFS (primary breast cancer; High HER-2 (grade 2-4), Low AIB1 (lower 3 quartiles), listed as Tamoxifen): 77%
- 5 yr DFS (primary breast cancer; Low HER-2 (grade 0-1), High AIB1 (top quartile)): 82%
- 5 yr DFS (primary breast cancer; Low HER-2 (grade 0-1), Low AIB1 (lower 3 quartiles)): 64%
- 5-year DFS (primary breast cancer; other three groups combined (not high AIB1 and high HER-2)): 70%
- Occupancy of the pS2 promoter [9]: induced occupancy of this promoter by ER but not by AIB1
- ERE luciferase activity above control ([10]; agent alone): inability

Molecule: EGF: epidermal growth factor purchased from Invitrogen (NSDSECPLSHDGYCLHDGVCMYIEALDKYACNCVVGYIGERCQYRDLKWWELR; Epidermal growth factor; UniProt P01133 971-1023, looked up)
- Phosphorylation of EGF-R, HER-2/neu and MAPK [7]: phosphorylation was detected
- Phosphorylation of ER on serine 118 [7]: phosphorylated
- Phosphorylation of EGF-R and HER-2/neu [8]: unable to detect phosphorylation
- Phosphorylation of ER on serine 118 [8]: phosphorylate
- Phosphorylation of MAPK and AKT [8]: did phosphorylate MAPK and AKT

Molecule: heregulin
- Protein expression of endogenous estrogen responsive genes [1]: dramatic effects on several of these genes
- Level of IRS1 ([1]; heregulin): large increase
- Protein expression of progesterone receptor ([1]; heregulin): increased
- Protein expression of endogenous estrogen responsive genes [2]: induced the expression of all of the genes except for progesterone receptor
- Percent of cells in S-phase (MCF-7 cells): markedly increased the S-phase fraction
- ERE luciferase activity (ER in MCF-7 cells; heregulin added to estrogen): two fold
- ERE luciferase activity (ER in MCF-7 cells; heregulin added to tamoxifen): increase luciferase activity a small amount
- AIB1 phosphorylation (mobility shift of AIB1 band) (AIB1 in MCF-7 cells): upshifted the AIB1 band
- AIB1 phosphorylation (mobility shift of AIB1 band) [5]: phosphorylation of AIB1 was observed
- Fraction of cells in S-phase (MCF-7/HER-218 cells): stimulated the fraction of cells in S-phase
- Phosphorylation of EGF-R, HER-2/neu and MAPK [7]: phosphorylation was detected
- Phosphorylation of ER on serine 118 [7]: phosphorylated
- Phosphorylation of EGF-R and HER-2/neu [8]: strongly phosphorylated
- Phosphorylation of ER on serine 118 [8]: phosphorylate
- Phosphorylation of MAPK and AKT [8]: strongly phosphorylated
- ERE luciferase activity in response to both estrogen and tamoxifen ([10]; heregulin added): remarkably enhanced luciferase activity
- Estrogen agonist properties of tamoxifen (luciferase) ([10]; heregulin added to tamoxifen): levels above estrogen alone
